According to patent US10660977B2, “Method for treating biological tissue and biological tissue” (WASEDA UNIVERSITY, priority 2012, dated 2020):

Assay: Concentration of trehalose dissolved in PBS
Type: physicochemical
Details: PBS at 37° C.
Experimental: Also, the maximum concentration of trehalose was set to 50% because the concentration of trehalose dissolved in PBS at 37° C. was about 50%.

For `OC[C@H]1O[C@H](O[C@H]2O[C@H](CO)[C@@H](O)[C@H](O)[C@H]2O)[C@H](O)[C@@H](O)[C@@H]1O` [trehalose], the “concentration of trehalose dissolved in PBS” value was “about 50%”.
